Activity calls are given as the source filed them. The rule behind the calls is not given here.

Experiment [1] addresses Protein disulfide-isomerase (Homo sapiens) (UniProt P07237). Briefly: Inhibition of PDI in human platelet rich plasma assessed as reduction in SFLLRN peptide-induced platelet aggregation preincubated for 30 mins followed by SFLLRN addition relative to control.
The species entered for another experiment is Mus musculus. The experiment in a line: Anti-platelet activity in mouse assessed as inhibition of laser injury-induced thrombus formation by measuring reduction in platelet accumulation in cremaster arterioles by microscopic method. The class given is functional, organism-based.

Chain of Protein disulfide-isomerase (Homo sapiens) (P07237 18-508 limits assumed): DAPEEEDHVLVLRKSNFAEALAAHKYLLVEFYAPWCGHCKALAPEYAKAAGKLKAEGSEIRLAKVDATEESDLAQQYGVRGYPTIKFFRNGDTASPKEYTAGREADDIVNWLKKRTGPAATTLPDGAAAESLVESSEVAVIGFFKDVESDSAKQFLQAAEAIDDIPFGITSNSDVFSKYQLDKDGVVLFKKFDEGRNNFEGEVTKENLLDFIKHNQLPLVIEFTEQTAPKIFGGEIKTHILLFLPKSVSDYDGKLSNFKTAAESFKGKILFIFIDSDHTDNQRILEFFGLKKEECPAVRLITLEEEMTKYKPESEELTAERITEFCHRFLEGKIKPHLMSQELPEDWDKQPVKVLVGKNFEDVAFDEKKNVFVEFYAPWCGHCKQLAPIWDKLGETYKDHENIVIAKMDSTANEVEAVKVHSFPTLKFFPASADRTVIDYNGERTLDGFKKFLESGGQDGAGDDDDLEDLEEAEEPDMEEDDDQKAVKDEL

With `CCOC(=O)C1(CCOc2ccccc2)CCN(C(=O)c2ccc(O)c(Cl)c2)CC1`, in experiment [1], the inhibition stood at 100%.
On the same count and under the same terms, for `CC(C)(C)OC(=O)C1(CCOc2ccccc2)CCN(Cc2ccc(O)c(Cl)c2)CC1` the value was 100%.
`CCOC(=O)C1(CCOc2ccccc2)CCN(Cc2ccc(O)c(Cl)c2)CC1`: the inhibition in experiment [1] lay in the range of 25 to 50%. The inhibition entry in the experiment filed under Mus musculus was “Active”.

The values above are taken from ChEMBL document CHEMBL4257225, “Compounds and compounds for use in methods for treating diseases or conditions mediated by protein disulfide isomerase” (2016).
